For orientation: TGI means how far tumour growth fell short of that in controls. Higher therefore signals a stronger effect on the tumour.

The source of these data is patent US12497465B2, “Combination of antibody-drug conjugate and tubulin inhibitor” (priority 2018, dated 2025).

In test [1] the test system is Human breast cancer cell line JIMT-1. As to the kind of experiment: Antitumor study (2): subcutaneously transplanted JIMT-1 cells in nude mice. The settings on record: JIMT-1 xenograft, ADC (1) 10 mg/kg iv Day 0, paclitaxel 15 mg/kg iv Day 0, 7, 14, eribulin mesylate 0.8 mg/kg iv Day 0, 3. In kind it is in vivo.
Protocol: (§1) Measurement and calculation formula: In all studies, the major axis and minor axis of tumors were measured twice a week with an electronic digital caliper (CD15-CX, Mitutoyo Corp.), and the tumor volume (mm^3) was calculated. The calculation formula is as shown below. Tumor volume(mm^3)=½×Major axis(mm)×[Minor axis (mm)]^2
(§2) Paclitaxel was dissolved with cremophor and ethanol (1:1), diluted with physiological saline, and then intravenously administered to the tail vein in a fluid volume of 10 or 20 mL/kg. Eribulin mesylate was diluted with physiological saline, and intravenously administered to the tail vein in a fluid volume of 10 mL/kg.
Human breast cancer cell line JIMT-1, which was purchased from DSMZ (Deutsche Sammlung von Mikroorganismen und Zellkulturen GmbH), was suspended into physiological saline, subcutaneously transplanted at 5×10^6 cells into the right side of female nude mice, and the mice were randomly grouped 13 days after the transplantation (Day 0). […] Paclitaxel was intravenously administered to the tail vein at a dose of 15 mg/kg on Day 0, Day 7 and Day 14. Eribulin mesylate was intravenously administered to the tail vein at a dose of 0.8 mg/kg on Day 0 and Day 3. Single administration groups of each drug, a combined administration group, and a solvent administration group as a control group were set up.
Test [2] has as its system Human breast cancer cell line KPL-4. As to the kind of experiment: Antitumor study (1): subcutaneously transplanted KPL-4 cells in nude mice. In kind it is in vivo. The note with it: KPL-4 xenograft, BALB/c nude mice, last day of the study; ADC (1) […] iv Day 0; paclitaxel 15 mg/kg iv Day 0, 7; eribulin mesylate 0.8 mg/kg iv Day 0, 4. The text has this:
The calculation formula is as shown below.
Human breast cancer cell line KPL-4, which was obtained from Dr. Junichi Kurebayashi in Kawasaki Medical School [British Journal of Cancer, (1999) 79 (5/6).

Test [3] concerns Human gastric cancer cell line NCI-N87. As to the kind of experiment: Antitumor study (3): subcutaneously transplanted NCI-N87 cells in nude mice. In kind it is in vivo. The settings on record: NCI-N87 xenograft, ADC (1) 1 mg/kg iv Day 0, paclitaxel 15 mg/kg iv Day 0, 7, eribulin mesylate 0.4 mg/kg iv Day 0, 4.
Protocol: as §1, §2
Human gastric cancer cell line NCI-N87, which was purchased from ATCC (American Type Culture Collection), was suspended into physiological saline, subcutaneously transplanted at 1×10^7 cells into the right side of female nude mice, and the mice were randomly grouped 6 days after the transplantation (Day 0). […] Paclitaxel was intravenously administered to the tail vein at a dose of 15 mg/kg on Day 0 and Day 7. Eribulin mesylate was intravenously administered to the tail vein at a dose of 0.4 mg/kg on Day 0 and Day 4. Single administration groups of each drug, a combined administration group, and a solvent administration group as a control group were set up.
Test [4] has as its system Human lung cancer cell line NCI-H441. As to the kind of experiment: Antitumor study (6): subcutaneously transplanted NCI-H441 cells in nude mice. The note with it: NCI-H441 xenograft, ADC (1) 10 mg/kg iv Day 0, paclitaxel 15 mg/kg iv Day 0, 7.
Protocol: as §1
(§3) Paclitaxel was dissolved with cremophor and ethanol (1:1), diluted with physiological saline, and then intravenously administered to the tail vein in a fluid volume of 10 or 20 mL/kg.
Human lung cancer cell line NCI-H441, which was purchased from ATCC, was suspended into Matrigel, subcutaneously transplanted at 5×10^6 cells into the right side of female nude mice, and the mice were randomly grouped 7 days after the transplantation (Day 0). […] Paclitaxel was intravenously administered to the tail vein at a dose of 15 mg/kg on Day 0 and Day 7. Single administration groups of each drug, a combined administration group, and a solvent administration group as a control group were set up.
Test [5] concerns Human breast cancer cell line MDA-MB-453. In words: Antitumor study (4): subcutaneously transplanted MDA-MB-453 cells in nude mice. The settings on record: MDA-MB-453 xenograft, ADC (1) 0.5 mg/kg iv Day 0, paclitaxel 15 mg/kg iv Day 0, 7.
Protocol: as §3
Human breast cancer cell line MDA-MB-453, which was purchased from ATCC, was suspended into Matrigel basal membrane matrix (Matrigel), subcutaneously transplanted at 1×10^7 cells into the right side of female nude mice, and the mice were randomly grouped 7 days after the transplantation (Day 0). […] Paclitaxel was intravenously administered to the tail vein at a dose of 15 mg/kg on Day 0 and Day 7. Single administration groups of each drug, a combined administration group, and a solvent administration group as a control group were set up.
The test system of test [6] is Human gastric cancer cell line SNU-1. As to the kind of experiment: Antitumor study (5): subcutaneously transplanted SNU-1 cells in nude mice. The note with it: SNU-1 xenograft, ADC (1) 10 mg/kg iv Day 0, paclitaxel 15 mg/kg iv Day 0, 7.
Protocol: as §1, §3
Human gastric cancer cell line SNU-1, which was purchased from ATCC, was suspended into Matrigel, subcutaneously transplanted at 1×10^7 cells into the right side of female nude mice, and the mice were randomly grouped 28 days after the transplantation (Day 0). […] Paclitaxel was intravenously administered to the tail vein at a dose of 15 mg/kg on Day 0 and Day 7. Single administration groups of each drug, a combined administration group, and a solvent administration group as a control group were set up.
The subject of test [7] is Human breast cancer cell line JIMT-1. The note with it: JIMT-1 xenograft, nude mice; ADC (2) 10 mg/kg iv Day 0, 7, 14; paclitaxel 15 mg/kg iv Day 0, 7.
Protocol: as §1, §3
Human breast cancer cell line JIMT-1, which was purchased from DSMZ, was suspended into physiological saline, subcutaneously transplanted at 5×10^6 cells into the right side of female nude mice, and the mice were randomly grouped 10 days after the transplantation (Day 0). […] Paclitaxel was intravenously administered to the tail vein at a dose of 15 mg/kg on Day 0 and Day 7. Single administration groups of each drug, a combined administration group, and a solvent administration group as a control group were set up.
Test [8] relates to Human ovarian cancer cell line OV-90. In words: Antitumor study (8): subcutaneously transplanted OV-90 cells in nude mice. The note with it: OV-90 xenograft, Day 17, ADC (3) 10 mg/kg iv Day 0, paclitaxel 15 mg/kg iv Day 0, 7, 14.
Protocol: as §1, §3
Human ovarian cancer cell line OV-90, which was purchased from ATCC, was suspended into Matrigel, subcutaneously transplanted at 2.5×10^6 cells into the right side of female nude mice, and the mice were randomly grouped 15 days after the transplantation (Day 0). […] Paclitaxel was intravenously administered to the tail vein at a dose of 15 mg/kg on Day 0, Day 7, and Day 14. Single administration groups of each drug, a combined administration group, and a solvent administration group as a control group were set up.

Counter-ions that a name gives are not always drawn. Like-named read-outs stand apart in the source and are kept apart here.

On to `C=C1C[C@@H]2CC[C@@]34C[C@H]5O[C@H]6[C@@H](O3)[C@H]3O[C@H](CC[C@@H]3O[C@H]6[C@H]5O4)CC(=O)C[C@@H]3[C@@H](OC)[C@@H](C[C@H](O)CN)O[C@H]3C[C@H]3O[C@@H](CC[C@@H]1O2)C[C@@H](C)C3=C` [eribulin mesylate], for which the TGI was determined as 73% in test [1] and 64% in test [3]. For the same molecule, the “tumor growth inhibition (TGI)” value in test [2] is on record as 91%.
With `CC(=O)O[C@H]1C(=O)[C@@]2(C)[C@H]([C@H](OC(=O)c3ccccc3)[C@]3(O)C[C@H](OC(=O)[C@H](O)[C@@H](NC(=O)c4ccccc4)c4ccccc4)C(C)=C1C3(C)C)[C@]1(OC(C)=O)CO[C@@H]1C[C@@H]2O` [paclitaxel], the TGI was 30% in test [1]; 55% in test [4]; 50% in test [3]; 96% in test [5]; 58% in test [6]; 36% in test [7]. Moreover, the TGI in test [8] is listed as 80%. The “tumor growth inhibition (TGI)” value in test [2] is on record as 48%.
As to “antibody-drug conjugate (2): anti-HER3 antibody (SEQ ID NO: 3 and 4) conjugated to exatecan-derivative drug-linker via a thioether bond”, in test [7], the TGI is on record as 69%.

B1: antibody-drug conjugate (3): anti-CDH6 antibody (SEQ ID NO: 11 residues 20-471, SEQ ID NO: 12 residues 21-233) conjugated to exatecan-derivative drug-linker via a thioether bond (conjugate, chains of the INN, looked up)
VH: EVQLVQSGAEVKKPGASVKVSCKASGYTFTRNFMHWVRQAPGQGLEWMGWIYPGDGETEYAQKFQGRVTITADTSTSTAYMELSSLRSEDTAVYYCARGVYGGFAGGYFDFWGQGTLVTVSS
VL: DIQMTQSPSSLSASVGDRVTITCKASQNIYKNLAWYQQKPGKAPKLLIYDANTLQTGVPSRFSGSGSGSDFTLTISSLQPEDFATYFCQQYYSGWAFGQGTKVEIK
modifications: exatecan-derivative drug-linker (deruxtecan)
B1 came in with a TGI in test [8] of 97%.
